Data: ChEMBL document CHEMBL1147101, “Development and persistence of antimicrobial resistance in Pseudomonas aeruginosa: a longitudinal observation in mechanically ventilated patients” (Antimicrob Agents Chemother, 2007)
The source made the active and inactive calls. The rule behind the calls is not given here.

What was measured:
Assay type in all cases: functional, organism-based
Conditions in all cases: Trachea
Pseudomonas aeruginosa [1] = assay: Antimicrobial activity against Pseudomonas aeruginosa 65.38-3 tracheal isolates from mechanically ventilated tuberculosis patient
Pseudomonas aeruginosa [2] = assay: Antimicrobial activity against Pseudomonas aeruginosa 1B9 tracheal isolates from mechanically ventilated tuberculosis patient
Pseudomonas aeruginosa [3] = assay: Antimicrobial activity against Pseudomonas aeruginosa 13E1 tracheal isolates from mechanically ventilated chronic respiratory insufficiency patient
Pseudomonas aeruginosa [4] = assay: Antimicrobial activity against Pseudomonas aeruginosa 15G2 tracheal isolates from mechanically ventilated chronic respiratory insufficiency patient
Pseudomonas aeruginosa [5] = assay: Antimicrobial activity against Pseudomonas aeruginosa 2A2 tracheal isolates from mechanically ventilated tuberculosis patient
Pseudomonas aeruginosa [6] = assay: Antimicrobial activity against Pseudomonas aeruginosa 2A3 tracheal isolates from mechanically ventilated tuberculosis patient
Pseudomonas aeruginosa [7] = assay: Antimicrobial activity against Pseudomonas aeruginosa 2A5 tracheal isolates from mechanically ventilated tuberculosis patient
Pseudomonas aeruginosa [8] = assay: Antimicrobial activity against Pseudomonas aeruginosa 2A6 tracheal isolates from mechanically ventilated tuberculosis patient
Pseudomonas aeruginosa [9] = assay: Antimicrobial activity against Pseudomonas aeruginosa 2F6 tracheal isolates from mechanically ventilated tuberculosis patient
Pseudomonas aeruginosa [10] = assay: Antimicrobial activity against Pseudomonas aeruginosa 2A7 tracheal isolates from mechanically ventilated tuberculosis patient
Pseudomonas aeruginosa [11] = assay: Antimicrobial activity against Pseudomonas aeruginosa 2A9 tracheal isolates from mechanically ventilated tuberculosis patient
Pseudomonas aeruginosa [12] = assay: Antimicrobial activity against Pseudomonas aeruginosa 3B1 tracheal isolates from mechanically ventilated tuberculosis patient
Pseudomonas aeruginosa [13] = assay: Antimicrobial activity against Pseudomonas aeruginosa 65.68-1 tracheal isolates from mechanically ventilated tuberculosis patient
Pseudomonas aeruginosa [14] = assay: Antimicrobial activity against Pseudomonas aeruginosa 65.68-3 tracheal isolates from mechanically ventilated tuberculosis patient
Pseudomonas aeruginosa [15] = assay: Antimicrobial activity against Pseudomonas aeruginosa 5H6 tracheal isolates from mechanically ventilated chronic respiratory insufficiency patient
Pseudomonas aeruginosa [16] = assay: Antimicrobial activity against Pseudomonas aeruginosa 65.68-4 tracheal isolates from mechanically ventilated tuberculosis patient
Pseudomonas aeruginosa [17] = assay: Antimicrobial activity against Pseudomonas aeruginosa 12A7 tracheal isolates from mechanically ventilated chronic respiratory insufficiency patient
Pseudomonas aeruginosa [18] = assay: Antimicrobial activity against Pseudomonas aeruginosa 12B2 tracheal isolates from mechanically ventilated chronic respiratory insufficiency patient
Pseudomonas aeruginosa [19] = assay: Antimicrobial activity against Pseudomonas aeruginosa 15H5 tracheal isolates from mechanically ventilated chronic respiratory insufficiency patient
Pseudomonas aeruginosa [20] = assay: Antimicrobial activity against Pseudomonas aeruginosa 16D5 tracheal isolates from mechanically ventilated chronic respiratory insufficiency patient
Pseudomonas aeruginosa [21] = assay: Antimicrobial activity against Pseudomonas aeruginosa 19B3 tracheal isolates from mechanically ventilated chronic respiratory insufficiency patient
Pseudomonas aeruginosa [22] = assay: Antimicrobial activity against Pseudomonas aeruginosa 19B6 tracheal isolates from mechanically ventilated chronic respiratory insufficiency patient
Pseudomonas aeruginosa [23] = assay: Antimicrobial activity against Pseudomonas aeruginosa 19C7 tracheal isolates from mechanically ventilated chronic respiratory insufficiency patient
Pseudomonas aeruginosa [24] = assay: Antimicrobial activity against Pseudomonas aeruginosa 19D9 tracheal isolates from mechanically ventilated chronic respiratory insufficiency patient
Pseudomonas aeruginosa [25] = assay: Antimicrobial activity against Pseudomonas aeruginosa 3D1 tracheal isolates from mechanically ventilated chronic respiratory insufficiency patient
Pseudomonas aeruginosa [26] = assay: Antimicrobial activity against Pseudomonas aeruginosa 3D10 tracheal isolates from mechanically ventilated chronic respiratory insufficiency patient
Pseudomonas aeruginosa [27] = assay: Antimicrobial activity against Pseudomonas aeruginosa 3E2 tracheal isolates from mechanically ventilated chronic respiratory insufficiency patient
Pseudomonas aeruginosa [28] = assay: Antimicrobial activity against Pseudomonas aeruginosa 5F2 tracheal isolates from mechanically ventilated chronic respiratory insufficiency patient
Pseudomonas aeruginosa [29] = assay: Antimicrobial activity against Pseudomonas aeruginosa 5F8 tracheal isolates from mechanically ventilated chronic respiratory insufficiency patient
Pseudomonas aeruginosa [30] = assay: Antimicrobial activity against Pseudomonas aeruginosa 5G3 tracheal isolates from mechanically ventilated chronic respiratory insufficiency patient
Pseudomonas aeruginosa [31] = assay: Antimicrobial activity against Pseudomonas aeruginosa 8A2 tracheal isolates from mechanically ventilated chronic respiratory insufficiency patient
Pseudomonas aeruginosa [32] = assay: Antimicrobial activity against Pseudomonas aeruginosa 8A12 tracheal isolates from mechanically ventilated chronic respiratory insufficiency patient
Pseudomonas aeruginosa [33] = assay: Antimicrobial activity against Pseudomonas aeruginosa 8C4 tracheal isolates from mechanically ventilated chronic respiratory insufficiency patient
Pseudomonas aeruginosa [34] = assay: Antimicrobial activity against Pseudomonas aeruginosa 8B11 tracheal isolates from mechanically ventilated chronic respiratory insufficiency patient
Pseudomonas aeruginosa [35] = assay: Antimicrobial activity against Pseudomonas aeruginosa 9A7 tracheal isolates from mechanically ventilated chronic respiratory insufficiency patient
Pseudomonas aeruginosa [36] = assay: Antimicrobial activity against Pseudomonas aeruginosa 9A10 tracheal isolates from mechanically ventilated chronic respiratory insufficiency patient
Pseudomonas aeruginosa [37] = assay: Antimicrobial activity against Pseudomonas aeruginosa 9B2 tracheal isolates from mechanically ventilated chronic respiratory insufficiency patient
Pseudomonas aeruginosa [38] = assay: Antimicrobial activity against Pseudomonas aeruginosa 9B5 tracheal isolates from mechanically ventilated chronic respiratory insufficiency patient
Pseudomonas aeruginosa [39] = assay: Antimicrobial activity against Pseudomonas aeruginosa 10A9 tracheal isolates from mechanically ventilated chronic respiratory insufficiency patient
Pseudomonas aeruginosa [40] = assay: Antimicrobial activity against Pseudomonas aeruginosa 10B1 tracheal isolates from mechanically ventilated chronic respiratory insufficiency patient
Pseudomonas aeruginosa [41] = assay: Antimicrobial activity against Pseudomonas aeruginosa 10B3 tracheal isolates from mechanically ventilated chronic respiratory insufficiency patient
Pseudomonas aeruginosa [42] = assay: Antimicrobial activity against Pseudomonas aeruginosa 12A3 tracheal isolates from mechanically ventilated chronic respiratory insufficiency patient
Pseudomonas aeruginosa [43] = assay: Antimicrobial activity against Pseudomonas aeruginosa 24G1 tracheal isolates from mechanically ventilated chronic respiratory insufficiency patient
Pseudomonas aeruginosa [44] = assay: Antimicrobial activity against Pseudomonas aeruginosa 29F6 tracheal isolates from mechanically ventilated chronic respiratory insufficiency patient
Pseudomonas aeruginosa [45] = assay: Antimicrobial activity against Pseudomonas aeruginosa 29G6 tracheal isolates from mechanically ventilated chronic respiratory insufficiency patient
Pseudomonas aeruginosa [46] = assay: Antimicrobial activity against Pseudomonas aeruginosa 29G7 tracheal isolates from mechanically ventilated chronic respiratory insufficiency patient
Pseudomonas aeruginosa [47] = assay: Antimicrobial activity against Pseudomonas aeruginosa 19E2 tracheal isolates from mechanically ventilated chronic respiratory insufficiency patient
Pseudomonas aeruginosa [48] = assay: Antimicrobial activity against Pseudomonas aeruginosa 19E9 tracheal isolates from mechanically ventilated chronic respiratory insufficiency patient
Pseudomonas aeruginosa [49] = assay: Antimicrobial activity against Pseudomonas aeruginosa 22D9 tracheal isolates from mechanically ventilated chronic respiratory insufficiency patient
Pseudomonas aeruginosa [50] = assay: Antimicrobial activity against Pseudomonas aeruginosa 22E3 tracheal isolates from mechanically ventilated chronic respiratory insufficiency patient
Pseudomonas aeruginosa [51] = assay: Antimicrobial activity against Pseudomonas aeruginosa P21.21 tracheal isolates from mechanically ventilated tuberculosis patient
Pseudomonas aeruginosa [52] = assay: Antimicrobial activity against Pseudomonas aeruginosa 65.18-4 tracheal isolates from mechanically ventilated tuberculosis patient
Pseudomonas aeruginosa [53] = assay: Antimicrobial activity against Pseudomonas aeruginosa P21.23 tracheal isolates from mechanically ventilated tuberculosis patient
Pseudomonas aeruginosa [54] = assay: Antimicrobial activity against Pseudomonas aeruginosa 65.33-1 tracheal isolates from mechanically ventilated tuberculosis patient
Pseudomonas aeruginosa [55] = assay: Antimicrobial activity against Pseudomonas aeruginosa 65.33-2 tracheal isolates from mechanically ventilated tuberculosis patient
Pseudomonas aeruginosa [56] = assay: Antimicrobial activity against Pseudomonas aeruginosa 65.33-4 tracheal isolates from mechanically ventilated tuberculosis patient
Pseudomonas aeruginosa [57] = assay: Antimicrobial activity against Pseudomonas aeruginosa 65.36-1 tracheal isolates from mechanically ventilated tuberculosis patient
Pseudomonas aeruginosa [58] = assay: Antimicrobial activity against Pseudomonas aeruginosa 65.36-2 tracheal isolates from mechanically ventilated tuberculosis patient
Pseudomonas aeruginosa [59] = assay: Antimicrobial activity against Pseudomonas aeruginosa 65.36-3 tracheal isolates from mechanically ventilated tuberculosis patient

C[C@@H](O)[C@H]1C(=O)N2C(C(=O)O)=C(SCCNC=N)C[C@H]12
Activity (Pseudomonas aeruginosa [1]): inactive
Activity (Pseudomonas aeruginosa [2]): inactive
Activity (Pseudomonas aeruginosa [3]): Active
Activity (Pseudomonas aeruginosa [4]): Active
Activity (Pseudomonas aeruginosa [5]): inactive
Activity (Pseudomonas aeruginosa [6]): inactive
Activity (Pseudomonas aeruginosa [7]): Active
Activity (Pseudomonas aeruginosa [8]): inactive
Activity (Pseudomonas aeruginosa [9]): inactive
Activity (Pseudomonas aeruginosa [10]): inactive
Activity (Pseudomonas aeruginosa [11]): inactive
Activity (Pseudomonas aeruginosa [12]): inactive
Activity (Pseudomonas aeruginosa [13]): inactive
Activity (Pseudomonas aeruginosa [14]): inactive
Activity (Pseudomonas aeruginosa [15]): Active
Activity (Pseudomonas aeruginosa [16]): inactive
Activity (Pseudomonas aeruginosa [17]): Active
Activity (Pseudomonas aeruginosa [18]): Active
Activity (Pseudomonas aeruginosa [19]): Active
Activity (Pseudomonas aeruginosa [20]): Active
Activity (Pseudomonas aeruginosa [21]): Active
Activity (Pseudomonas aeruginosa [22]): Active
Activity (Pseudomonas aeruginosa [23]): Active
Activity (Pseudomonas aeruginosa [24]): Active
Activity (Pseudomonas aeruginosa [25]): Active
Activity (Pseudomonas aeruginosa [26]): Active
Activity (Pseudomonas aeruginosa [27]): Active
Activity (Pseudomonas aeruginosa [28]): Active
Activity (Pseudomonas aeruginosa [29]): Active
Activity (Pseudomonas aeruginosa [30]): Active
Activity (Pseudomonas aeruginosa [31]): Active
Activity (Pseudomonas aeruginosa [32]): Active
Activity (Pseudomonas aeruginosa [33]): Active
Activity (Pseudomonas aeruginosa [34]): Active
Activity (Pseudomonas aeruginosa [35]): Active
Activity (Pseudomonas aeruginosa [36]): Active
Activity (Pseudomonas aeruginosa [37]): Active
Activity (Pseudomonas aeruginosa [38]): Active
Activity (Pseudomonas aeruginosa [39]): Active
Activity (Pseudomonas aeruginosa [40]): Active
Activity (Pseudomonas aeruginosa [41]): Active
Activity (Pseudomonas aeruginosa [42]): Active
Activity (Pseudomonas aeruginosa [43]): Active
Activity (Pseudomonas aeruginosa [44]): Active
Activity (Pseudomonas aeruginosa [45]): Active
Activity (Pseudomonas aeruginosa [46]): Active
Activity (Pseudomonas aeruginosa [47]): Active
Activity (Pseudomonas aeruginosa [48]): Active
Activity (Pseudomonas aeruginosa [49]): Active
Activity (Pseudomonas aeruginosa [50]): Active
Activity (Pseudomonas aeruginosa [51]): Active
Activity (Pseudomonas aeruginosa [52]): inactive
Activity (Pseudomonas aeruginosa [53]): Active
Activity (Pseudomonas aeruginosa [54]): inactive
Activity (Pseudomonas aeruginosa [55]): inactive
Activity (Pseudomonas aeruginosa [56]): inactive
Activity (Pseudomonas aeruginosa [57]): inactive
Activity (Pseudomonas aeruginosa [58]): inactive
Activity (Pseudomonas aeruginosa [59]): inactive

CCn1cc(C(=O)O)c(=O)c2cc(F)c(N3CCNCC3)cc21
Activity (Pseudomonas aeruginosa [1]): Active
Activity (Pseudomonas aeruginosa [2]): Active
Activity (Pseudomonas aeruginosa [3]): Active
Activity (Pseudomonas aeruginosa [4]): inactive
Activity (Pseudomonas aeruginosa [5]): Active
Activity (Pseudomonas aeruginosa [6]): Active
Activity (Pseudomonas aeruginosa [7]): Active
Activity (Pseudomonas aeruginosa [8]): Active
Activity (Pseudomonas aeruginosa [9]): Active
Activity (Pseudomonas aeruginosa [10]): Active
Activity (Pseudomonas aeruginosa [11]): Active
Activity (Pseudomonas aeruginosa [12]): Active
Activity (Pseudomonas aeruginosa [13]): Active
Activity (Pseudomonas aeruginosa [14]): Active
Activity (Pseudomonas aeruginosa [15]): Active
Activity (Pseudomonas aeruginosa [16]): Active
Activity (Pseudomonas aeruginosa [17]): Active
Activity (Pseudomonas aeruginosa [18]): Active
Activity (Pseudomonas aeruginosa [19]): Active
Activity (Pseudomonas aeruginosa [20]): Active
Activity (Pseudomonas aeruginosa [21]): Active
Activity (Pseudomonas aeruginosa [22]): Active
Activity (Pseudomonas aeruginosa [23]): Active
Activity (Pseudomonas aeruginosa [24]): inactive
Activity (Pseudomonas aeruginosa [25]): Active
Activity (Pseudomonas aeruginosa [26]): Active
Activity (Pseudomonas aeruginosa [27]): Active
Activity (Pseudomonas aeruginosa [28]): Active
Activity (Pseudomonas aeruginosa [29]): Active
Activity (Pseudomonas aeruginosa [30]): Active
Activity (Pseudomonas aeruginosa [31]): Active
Activity (Pseudomonas aeruginosa [32]): Active
Activity (Pseudomonas aeruginosa [33]): Active
Activity (Pseudomonas aeruginosa [34]): Active
Activity (Pseudomonas aeruginosa [35]): Active
Activity (Pseudomonas aeruginosa [36]): Active
Activity (Pseudomonas aeruginosa [37]): Active
Activity (Pseudomonas aeruginosa [38]): Active
Activity (Pseudomonas aeruginosa [39]): Active
Activity (Pseudomonas aeruginosa [40]): Active
Activity (Pseudomonas aeruginosa [41]): Active
Activity (Pseudomonas aeruginosa [42]): Active
Activity (Pseudomonas aeruginosa [43]): Active
Activity (Pseudomonas aeruginosa [44]): Active
Activity (Pseudomonas aeruginosa [45]): Active
Activity (Pseudomonas aeruginosa [46]): Active
Activity (Pseudomonas aeruginosa [47]): Active
Activity (Pseudomonas aeruginosa [48]): Active
Activity (Pseudomonas aeruginosa [49]): Active
Activity (Pseudomonas aeruginosa [50]): Active
Activity (Pseudomonas aeruginosa [51]): Active
Activity (Pseudomonas aeruginosa [52]): Active
Activity (Pseudomonas aeruginosa [53]): Active
Activity (Pseudomonas aeruginosa [54]): Active
Activity (Pseudomonas aeruginosa [55]): Active
Activity (Pseudomonas aeruginosa [56]): Active
Activity (Pseudomonas aeruginosa [57]): Active
Activity (Pseudomonas aeruginosa [58]): Active
Activity (Pseudomonas aeruginosa [59]): Active
